We go through four molecules from patent US9302999B2, “Substituted triazoles as herbicides” (E. I. DU PONT DE NEMOURS AND COMPANY, priority 2012, dated 2016).

Common to all, as to format: in vivo
Assay [1] deals with bermudagrass (Cynodon dactylon). The assay is described as follows: Test C pre-/postemergence: bermudagrass. The source says:
Seeds of plant species selected from blackgrass (Alopecurus myosuroides), bromegrass, downy (downy bromegrass, Bromus tectorum), foxtail, green (green foxtail, Setaria viridis), ryegrass, Italian (Italian ryegrass, Lolium multiflorum), winter wheat (Triticum aestivum), wild oat (Avena fatua), galium (catchweed bedstraw, Galium aparine), bermudagrass (Cynodon dactylon), surinam grass (Brachiaria decumbens), cocklebur (common cocklebur, Xanthium strumarium), corn (Zea mays), large crabgrass (Digitaria sanguinalis), woolly cupgrass (Eriochloa villosa), foxtail, giant (giant foxtail, Setaria faberii), goosegrass (Eleusine indica), johnsongrass (Sorghum halepense), kochia (Kochia scoparia), lambsquarters (Chenopodium album), morningglory (Ipomoea coccinea), nightshade (eastern black nightshade, Solanum ptycanthum), nutsedge, yellow (yellow nutsedge, Cyperus esculentus), pigweed (Amaranthus retroflexus), ragweed (common ragweed, Ambrosia elation), soybean (Glycine max), common (oilseed) sunflower (Helianthus annuus), Russian thistle (Salsola kali) and velvetleaf (Abutilon theophrasti) were planted into a blend of loam soil and sand and treated preemergence with test chemicals formulated in a non-phytotoxic solvent mixture which included a surfactant.
At the same time, plants selected from these crop and weed species and also barley (winter barley, Hordeum vulgare), canarygrass (Phalaris minor), chickweed (common chickweed, Stellaria media) windgrass (Apera spica-venti) and deadnettle (henbit deadnettle, Lamium amplexicaule) were planted in pots containing Redi-Earth® planting medium (Scotts Company, 14111 Scottslawn Road, Marysville, Ohio 43041) comprising spaghnum peat moss, vermiculite, wetting agent and starter nutrients and treated with postemergence applications of test chemicals formulated in the same manner. Plants ranged in height from 2 to 18 cm (1- to 4-leaf stage) for postemergence treatments.
Treated plants and controls were maintained in a greenhouse for 13 to 15 days, after which time all species were compared to controls and visually evaluated. Plant response ratings, summarized in Table C, are based on a scale of 0 to 100 where 0 is no effect and 100 is complete control. A dash (-) response means no test result.

Assay [2] relates to field violet (Viola arvensis). The assay is described as follows: Test D pre-/postemergence: field violet. Conditions: Postemergence. The source says:
(§1) Seeds of plant species selected from bluegrass (annual bluegrass, Poa annua), blackgrass (Alopecurus myosuroides), canarygrass (Phalaris minor), chickweed (common chickweed, Stellaria media), galium (catchweed bedstraw, Galium aparine), bromegrass, downy (downy bromegrass, Bromus tectorum), field poppy (Papaver rhoeas), field violet (Viola arvensis), foxtail, green (green foxtail, Setaria viridis), deadnettle (henbit deadnettle, Lamium amplexicaule), ryegrass, Italian (Italian ryegrass, Lolium multiflorum), kochia (Kochia scoparia), lambsquarters (Chenopodium album), oilseed rape (Brassica napus), pigweed (Amaranthus retroflexus), Russian thistle (Salsola iberica), chamomile (scentless chamomile, Matricaria inodora), speedwell (bird's-eye speedwell, Veronica persica), barley, spring (spring barley, Hordeum vulgare), wheat, spring (spring wheat, Triticum aestivum), buckwheat, wild (wild buckwheat, Polygonum convolvulus), mustard, wild (wild mustard, Sinapis arvensis), oat, wild (wild oat, Avena fatua), radish, wild (wild radish, Raphanus raphanistrum), windgrass (Apera spica-venti), barley, winter (winter barley, Hordeum vulgare), and wheat, winter (winter wheat, Triticum aestivum) were planted into a silt loam soil and treated preemergence with test chemicals formulated in a non-phytotoxic solvent mixture which included a surfactant. At the same time, these same crop and weed species were planted in pots containing the planting medium comprising spaghnum peat moss, vermiculite, wetting agent and starter nutrients and treated with postemergence applications of the test chemicals formulated in the same manner. Plants ranged in height from 2 to 18 cm (1- to 4-leaf stage).
(§2) Treated plants and controls were maintained in a controlled growth environment for 14 to 21 days after which time all species were compared to controls and visually evaluated. Plant response ratings, summarized in Table D, are based on a scale of 0 to 100 where 0 is no effect and 100 is complete control. A dash (-) response means no test result.

Assay [3] has as its system speedwell (bird's-eye speedwell, Veronica persica). The assay can be described thus: Test D pre-/postemergence: speedwell. Conditions: Postemergence.
From the text: as §1, §2

Assay [4] relates to lambsquarters (Chenopodium album). The assay is described as follows: Test D pre-/postemergence: lambsquarters. Conditions: Postemergence.
From the text: as §1, §2

For assay [5], the system named is bromegrass, downy (downy bromegrass, Bromus tectorum). The assay is described as follows: Test D pre-/postemergence: bromegrass, downy. Conditions: Postemergence.
From the text: as §1, §2

In another assay the test system is kochia (Kochia scoparia). The assay can be described thus: Test D pre-/postemergence: kochia. As to conditions: Postemergence.
From the text: as §1, §2

In assay [6] the test system is barley, winter (winter barley, Hordeum vulgare). The assay is described as follows: Test D pre-/postemergence: barley, winter. Conditions: Postemergence.
From the text: as §1, §2

For assay [7], the system named is wheat, spring (spring wheat, Triticum aestivum). The assay can be described thus: Test D pre-/postemergence: wheat, spring. As to conditions: Postemergence.
From the text: as §1, §2

Setting [8] is: Postemergence, 31 g ai/ha, scale 0 to 100 (0 no effect, 100 complete control).
The mark [9] stands for this setting: Postemergence, 62 g ai/ha, scale 0 to 100 (0 no effect, 100 complete control).
Setting [10] is: Postemergence, 250 g ai/ha, scale 0 to 100.
The mark [11] stands for this setting: 31 g ai/ha, scale 0 to 100 (0 no effect, 100 complete control).
The mark [12] stands for this setting: 62 g ai/ha, scale 0 to 100 (0 no effect, 100 complete control).
Setting [13] is: 125 g ai/ha, scale 0 to 100, 0 no effect, 100 complete control.
The mark [14] stands for this setting: 250 g ai/ha, scale 0 to 100 (0 no effect, 100 complete control).
[15] abbreviates: Postemergence, 125 g ai/ha, scale 0 to 100, 0 no effect, 100 complete control.
Setting [16] is: Preemergence, 31 g ai/ha, scale of 0 to 100, 0 is no effect, 100 is complete control.
Where [17] appears, read: Preemergence, 125 g ai/ha, scale 0 to 100, 0 no effect, 100 complete control.
Setting [18] is: Preemergence, 250 g ai/ha, scale 0 to 100, 0 no effect, 100 complete control.

`Cc1nn(-c2ccnc(C(F)(F)F)c2)nc1Cc1ccnc(C(F)(F)F)c1` [Compound 137]: the “Plant response rating, Bermudagrass” value in assay [1] (setting [8]) worked out at 30; in assay [1] (setting [9]), 30; in assay [1] (setting [10]), 45. In addition, the “Plant response rating: Field Violet” value in assay [2] (setting [11]) is on record as 70; in assay [2] (setting [12]), 85; in assay [2] (setting [13]), 90; in assay [2] (setting [14]), 95. Further, the “Plant response rating, Field Violet” value in assay [2] (16 g ai/ha, scale 0 to 100) is listed as 50. Also, the “Plant response rating: Speedwell” value in assay [3] (setting [11]) was found to be 70; in assay [3] (setting [12]) it was 85; in assay [3] (setting [13]), 95; in assay [3] (setting [14]), 100. The “Plant response rating, Speedwell” value in assay [3] (16 g ai/ha, scale 0 to 100) amounted to 70. Moreover, the “Plant response rating: Lambsquarters” value in assay [4] (setting [11]) is recorded as 75; in assay [4] (setting [12]), 80; in assay [4] (setting [13]), 95; in assay [4] (setting [14]) it was 95. In addition, the “Plant response rating, Lambsquarters” value in assay [4] (16 g ai/ha, scale 0 to 100) is recorded as 40. For the same molecule, the “Plant response rating: Bromegrass, Downy” value in assay [5] (setting [11]) came to 15; in assay [5] (setting [12]), 20; in assay [5] (setting [13]), 30; in assay [5] (setting [14]), 40. The “Plant response rating, Bromegrass, Downy” value in assay [5] (16 g ai/ha, scale 0 to 100) is listed as 5. Also, the “Plant response rating: Kochia” value is listed as 85 in the assay on kochia (Kochia scoparia) (setting [11]), 90 in the assay with kochia (Kochia scoparia) (setting [12]), 95 in the assay on kochia (Kochia scoparia) (setting [13]) and 100 with kochia (Kochia scoparia) (setting [14]). Besides, the “Plant response rating, Kochia” value in the assay with kochia (Kochia scoparia) (16 g ai/ha, scale 0 to 100) worked out at 75. Besides, the “Plant response rating: Barley, Winter” value in assay [6] (setting [11]) came to 5; in assay [6] (setting [12]) it was 5; in assay [6] (setting [13]), 1; in assay [6] (setting [14]), 10. For the same molecule, the “Plant response rating, Barley, Winter” value in assay [6] (16 g ai/ha, scale 0 to 100) stood at 0. Moreover, the “Plant response rating: Wheat, Spring” value was 5 in assay [7] (setting [11]), 10 in assay [7] (setting [12]), 20 in assay [7] (setting [13]) and 25 in assay [7] (setting [14]). Moreover, the “Plant response rating, Wheat, Spring” value in assay [7] (16 g ai/ha, scale 0 to 100) was found to be 0.
As for `Fc1ccc(-n2nc(Cc3ccnc(C(F)(F)F)c3)c(OCC(F)(F)F)n2)cc1` [Compound 142], the “Plant response rating, Bermudagrass” value in assay [1] (setting [8]) is 15; in assay [1] (setting [9]), 70; in assay [1] (setting [15]) it was 75; in assay [1] (setting [10]) it was 85; in assay [1] (setting [16]), 98; in assay [1] (Preemergence, 62 g ai/ha, scale of 0 to 100, 0 is no effect, 100 is complete control), 98. Further, the “Plant response rating, Bermudagrass” value in assay [1] (setting [17]) and in assay [1] (setting [18]) was 98 each time.
As to `Cc1nn(-c2ccc(C(F)(F)F)cc2)nc1Cc1cccc(C(F)(F)F)c1` [Compound 124], the “Plant response rating, Bermudagrass” value in assay [1] (Postemergence, 16 g ai/ha, scale 0 to 100, 0 no effect, 100 complete control) turned out to be 5; in assay [1] (setting [8]) it was 25; in assay [1] (setting [9]), 45; in assay [1] (setting [15]), 60.
As to `Cc1nn(-c2ccc(C(F)(F)F)cc2)nc1Cc1ccnc(C(F)(F)F)c1` [Compound 47, 4-[[5-methyl-2-[4-(trifluoromethyl)phenyl]-2H-1,2,3-triazol-4-yl]methyl]-2-(trifluoromethyl)pyridine], the “Plant response rating, Bermudagrass” value in assay [1] (setting [8]) is recorded as 10; in assay [1] (setting [9]) it was 20; in assay [1] (setting [15]) it was 55; in assay [1] (setting [10]), 75; in assay [1] (setting [16]) it was 100; in assay [1] (Preemergence, 62 g ai/ha, scale 0 to 100, 0 no effect, 100 complete control) it was 100. Besides, the “Plant response rating, Bermudagrass” value in assay [1] (setting [17]) and in assay [1] (setting [18]) was 100 each time.
